Assay results reported in patent US5756463A, “Use of insulin and IGF-1” (Pharmacia & Upjohn AB, priority 1994, dated 1998).
“Also recorded” adds a separate entry of the source. Values belong to the compound of their own block, whether it stands above or below them.

How the values were obtained:
Male Sprague-Dawley rats [1] = assay: Example 1: body weight gain and nitrogen retention in dexamethasone-infused rats, 8-day subcutaneous mini-pump infusion; assay type: in vivo, rat; settings: 8 days
Protocol: On day zero the rats were anaesthetized intraperitoneally with 0.4 ml per 100 g body weight of a mixture of Rompun (20 mg.ml^-1), Ketalar (50 mg.ml^-1) and Saline (0.9%) in 1:2:3 volume proportions. The hair on the back of the rats was shaved off and the exposed skin carefully washed with 0.05% chlorhexidine (Pharmacia, Stockholm, Sweden) and 0.4 % jodopax (Molnlycke, Goteborg, Sweden), both being diluted in 70% alcohol. Two mutually parallel incisions, each of 15 mm in length, were then made along the dorsal midline. The incisions penetrated the epidermis, dermis and subcutaneous muscle but left the deep fascia intact. Two subcutaneous pockets were made on both sides of the incisions by separating the subcutaneous muscle from the deep fascia. One (Exp. I) or two (Exp. 2) mini-pumps were implanted in each pocket. The wounds were closed with sutures 4-0 (Johnson & Johnson). Osmotic mini-pumps (Alzet 2001, Alza Corporation, Palo Alto, USA) releasing 1 μl.h^-1 for 8 days were used for continuous delivery of hormones and Dex to the animals. The pumps were filled to a volume of 0.22 ml with solutions of rhGH (14.4 mg.ml^-1, Genotropin®, Pharmacia), […] (20 mg.ml^-1, Igef®, Pharmacia, Kabi Peptide Hormones, Stockholm, Sweden), insulin (1.57 mg/ml, Actrapid®, Novo, Copenhagen, Denmark), Dex (1.04 mg.ml^-1, Decadron, Merck Sharp & Dohme International, […], USA) or Saline (0.9%). Two (Example 1) or four (Example 2) pumps combined as described above were implanted in each rat. Implantation of the pumps was performed under strictly aseptic conditions. Total feed intake was registered throughout the full 8 day experimental period. Urine and faeces were collected daily, pooled and kept at -20° C. until analysed. Excreta was collected by housing the animals in individual metabolism cages that were specially designed for the separation of urine and faeces. In order to inhibit urease-activity in the urine, 1 ml of 5% sulphuric acid was pipetted every morning in the collection vessels. The 24 hour collections of urine were pooled individually for each treatment period and immediately frozen after the collection. Similarly, the samples of faeces were also pooled individually for each treatment period and kept frozen (-20° C.) until analysis. Urea in serum was determined spectrophotometrically by using the Urea UV Uni-Kit I (Roche) with an autoanalyzer (Cobas Mira, Roche Co, Basel, Switzerland). Urea values were expressed in mmol/l. The total nitrogen content in urine was determined with the aid of the Antek Pyro-Chemiluminiscence Nitrogen System. The apparatus used comprised the […] nitrogen analyser with Liquid Auto Sampler 736-2 and a pyrolysis tube with a ceramic […] Instruments Inc., Houston, Tex., U.S.A.). The frozen urinary samples were thawed and diluted 1:100 with 0.1 M HCl and then analysed. The urinary nitrogen values were then calculated as mg nitrogen excreted. Total nitrogen in faeces was determined by an established Kjeldahl method (Kjeltec System, Tecator AB, Halsingborg, Sweden). The frozen faecal samples were thawed and dried in an oven at 60° C. overnight. The weight of the dried sample was noted and the sample then ground. 0.20 g of the milled faecal sample was mixed in a Kjeldahl digestion tube with 10.0 ml of concentrated sulphuric acid. 2.0 ml of a 30% solution of H202 (30% Perhydrol, Merck, Darmstadt, Germany) was added and mixed carefully. One catalyst tablet (Kjeltabs CA, Thompson & Capper, Runcom, Cheshire, UK) was added to each sample. The mixture was digested at […] for at least one hour or until complete bleaching of the sample was achieved. […] The faecal nitrogen values were calculated as mg nitrogen excreted. Data were subjected to a one-way analysis of variance in which the effect of treatment was considered the prime source of variation. Calculations were executed by the GLM procedure of the SAS program (SAS 1985). […]

Male Sprague-Dawley rats [2] = assay: Example 2: feed intake, nitrogen digestibility and nitrogen retention in dexamethasone-infused rats, 8-day mini-pump infusion of peptide combinations; assay type: in vivo, rat; settings: 8 days; for relative nitrogen retention (retained N/digested N×100): Dex 26 μg/day with saline or with insulin 39, rhGH 360, rhIGF-I 500 μg/day, mean, pooled SE, saline alone 38.7%; for nitrogen retention, effect compared with Dex without peptide: Dex 26 μg/day plus peptide
Protocol: On day zero the rats were anaesthetized intraperitoneally with 0.4 ml per 100 g body weight of a mixture of Rompun (20 mg.ml^-1), Ketalar (50 mg.ml^-1) and Saline (0.9%) in 1:2:3 volume proportions. The hair on the back of the rats was shaved off and the exposed skin carefully washed with 0.05% chlorhexidine (Pharmacia, Stockholm, Sweden) and 0.4 % jodopax (Molnlycke, Goteborg, Sweden), both being diluted in 70% alcohol.
Two mutually parallel incisions, each of 15 mm in length, were then made along the dorsal midline. The incisions penetrated the epidermis, dermis and subcutaneous muscle but left the deep fascia intact. Two subcutaneous pockets were made on both sides of the incisions by separating the subcutaneous muscle from the deep fascia. One (Exp. I) or two (Exp. 2) mini-pumps were implanted in each pocket. The wounds were closed with sutures 4-0 (Johnson & Johnson).
Osmotic mini-pumps (Alzet 2001, Alza Corporation, Palo Alto, USA) releasing 1 μl.h^-1 for 8 days were used for continuous delivery of hormones and Dex to the animals. The pumps were filled to a volume of 0.22 ml with solutions of rhGH (14.4 mg.ml^-1, Genotropin®, Pharmacia), rhlGF-I (20 mg.ml^-1, Igef®, Pharmacia, Kabi Peptide Hormones, Stockholm, Sweden), insulin (1.57 mg/ml, Actrapid®, Novo, Copenhagen, Denmark), Dex (1.04 mg.ml^-1, Decadron, Merck Sharp & Dohme International, Rathway, USA) or Saline (0.9%). Two (Example 1) or four (Example 2) pumps combined as described above were implanted in each rat. Implantation of the pumps was performed under strictly aseptic conditions.
Total feed intake was registered throughout the full 8 day experimental period. Urine and faeces were collected daily, pooled and kept at -20° C. until analysed. Excreta was collected by housing the animals in individual metabolism cages that were specially designed for the separation of urine and faeces. In order to inhibit urease-activity in the urine, 1 ml of 5% sulphuric acid was pipetted every morning in the collection vessels. The 24 hour collections of urine were pooled individually for each treatment period and immediately frozen after the collection. Similarly, the samples of faeces were also pooled individually for each treatment period and kept frozen (-20° C.) until analysis.
Urea in serum was determined spectrophotometrically by using the Urea UV Uni-Kit I (Roche) with an autoanalyzer (Cobas Mira, Roche Co, Basel, Switzerland). Urea values were expressed in mmol/l. The total nitrogen content in urine was determined with the aid of the Antek Pyro-Chemiluminiscence Nitrogen System. The apparatus used comprised the Antek 7000N nitrogen analyser with Liquid Auto Sampler 736-2 and a pyrolysis tube with a ceramic liner (Antek Instruments Inc., Houston, Tex., U.S.A.). The frozen urinary samples were thawed and diluted 1:100 with 0.1 M HCl and then analysed. The urinary nitrogen values were then calculated as mg nitrogen excreted.
Total nitrogen in faeces was determined by an established Kjeldahl method (Kjeltec System, Tecator AB, Halsingborg, Sweden). The frozen faecal samples were thawed and dried in an oven at 60° C. overnight. The weight of the dried sample was noted and the sample then ground. 0.20 g of the milled faecal sample was mixed in a Kjeldahl digestion tube with 10.0 ml of concentrated sulphuric acid. 2.0 ml of a 30% solution of H202 (30% Perhydrol, Merck, Darmstadt, Germany) was added and mixed carefully. One catalyst tablet (Kjeltabs CA, Thompson & Capper, Runcom, Cheshire, UK) was added to each sample. The mixture was digested at […] for at least one hour or until complete bleaching of the sample was achieved. The nitrogen content of this solution was determined after alkalinization by steam distillation of the ammonia and automated titration of the distillate. The faecal nitrogen values were calculated as mg nitrogen excreted.
Data were subjected to a one-way analysis of variance in which the effect of treatment was considered the prime source of variation.

[3] = Dex 26, 13 or 6.5 μg/day (every Dex dose), rhGH 360 μg/day or rhIGF-I 500 μg/day s.c. mini-pump, compared with saline

reduction of feed intake (Male Sprague-Dawley rats [2]; Dex 26 μg/day): approximately 20%
Compound: C[C@@H]1C[C@H]2[C@@H]3CCC4=CC(=O)C=C[C@]4(C)[C@@]3(F)[C@@H](O)C[C@]2(C)[C@@]1(O)C(=O)CO [Dex, dexamethasone, reference compound]
body weight gain, effect of Dex dose (Male Sprague-Dawley rats [1]; Dex 6.5, 13, 26 μg/day): general decrease with increased Dex dose
relative nitrogen retention (retained N/digested N×100) (Male Sprague-Dawley rats [2]): 7.2%

Compound: insulin
nitrogen retention, effect compared with Dex without peptide (Male Sprague-Dawley rats [2]): without effect
relative nitrogen retention (retained N/digested N×100) (Male Sprague-Dawley rats [2]): 11.9%

Compound: recombinant human growth hormone [rhGH]
body weight gain (Male Sprague-Dawley rats [1]; [3]): opposite effect
body weight gain (Male Sprague-Dawley rats [1]; Dex 26, 13 or 6.5 μg/day (every Dex dose), rhGH 360 μg/day or rhIGF-I 500 μg/day s.c. mini-pump, compared with saline, listed as hGH): opposite effect (p<0.05)
body weight gain (Male Sprague-Dawley rats [1]; medium and high Dex infusion dose (13 and 26 μg/day), rhGH 360 μg/day): negative values for body weight gain
nitrogen retention, effect compared with Dex without peptide (Male Sprague-Dawley rats [2]): without effect
relative nitrogen retention (retained N/digested N×100) (Male Sprague-Dawley rats [2]): 3.8%

Compound: recombinant human insulin-like growth factor I [rhIGF-I]
body weight gain (Male Sprague-Dawley rats [1]; [3]): significantly (p<0.05) higher weight gain in comparison with saline; also recorded: significantly (p<0.05) increased
retention of nitrogen (Male Sprague-Dawley rats [1]; Dex 26, 13 or 6.5 μg/day, rhIGF-I 500 μg/day, compared with saline and rhGH): significantly (p<0.05) higher
relative nitrogen retention (retained N/digested N×100) (Male Sprague-Dawley rats [2]): 23.0%
